According to US11566007B2, “Ras inhibitors” (Revolution Medicines, Inc., priority 2019, dated 2023):
Values joined by “and” are separate entries in the source; they are usually repeats but may differ in a detail not shown here. Equal entries are not always repeated.

Tests used:
[1] = system: NCI-H358 cells (K-Ras G12C); assay: Potency assay: pERK in NCI-H358 cells; type: cell-based, human; conditions: Homo sapiens, NCI-H358; H358 KRAS G12C; read-out: pERK EC50
Outline: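 pERK decrease read by AlphaLISA SureFire p-ERK1/2 or In-Cell Western after 4 h compound exposure at 37 °C, 5% CO2.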

NCI-H358 (K-Ras G12C) = assay: CellTiter-Glo cell viability assay, NCI-H358; type: cell-based, human; conditions: Homo sapiens, NCI-H358, 120 h, NCI-H358, 5-day treatment; class symbols; read-out: Additional H358 Cell Viability assay data (K-Ras G12C, IC50)
Outline: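 Compounds dispensed directly onto seeded K-Ras mutant cells; plates read on day 5 after ~30 min equilibration to room temperature, by CellTiter-Glo luminescence. Signal normalized as (sample/mean DMSO)×100, then fitted to a four-parameter logistic curve.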

K-Ras G12C = K-Ras G12C (Homo sapiens (Human), UniProt P01116+P62937, G12C); assay: Ras-Raf (BRAF RBD) disruption / FRET / MOA assay, KRAS G12C; type: biochemical; conditions: KRAS G12C; Ras-Raf disruption/FRET/MOA assay; read-out: IC50* KRAS G12C FRET data
Outline: (§1)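 A 10-point, 3-fold dilution series topping at 30 μM final was incubated 3 h at 25° C with the Ras/cyclophilin A/BRAF RBD mixture.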

K-Ras G13C = K-Ras G13C (Homo sapiens (Human), UniProt P01116+P62937, G13C); assay: Ras-Raf (BRAF RBD) disruption / FRET / MOA assay, KRAS G13C; type: biochemical; conditions: KRAS G13C; Ras-Raf disruption/FRET/MOA assay; read-out: IC50* KRAS G13C FRET data
Outline: as §1

KRAS G12S = KRAS G12S (Homo sapiens (Human), UniProt P01116+P62937, G12S); assay: Ras-Raf (BRAF RBD) disruption / FRET / MOA assay, KRAS G12S; type: biochemical; conditions: Ras-Raf disruption/FRET/MOA assay; class symbols; read-out: KRAS G12S FRET data IC50
Outline: as §1

KRAS G12D = KRAS G12D (Homo sapiens (Human), UniProt P01116+P62937, G12D); assay: Ras-Raf (BRAF RBD) disruption / FRET / MOA assay, KRAS G12D; type: biochemical; conditions: Ras-Raf disruption/FRET/MOA assay; class symbols; read-out: KRAS G12D FRET data IC50
Outline: as §1

KRAS G12V = KRAS G12V (Homo sapiens (Human), UniProt P01116+P62937, G12V); assay: Ras-Raf (BRAF RBD) disruption / FRET / MOA assay, KRAS G12V; type: biochemical; conditions: read-out: IC50* KRAS G12V FRET data
Outline: as §1

KRAS WT = KRAS WT (Homo sapiens (Human), UniProt P01116+P62937); assay: Ras-Raf (BRAF RBD) disruption / FRET / MOA assay, KRAS WT; type: biochemical; conditions: read-out: IC50* KRAS WT FRET data
Outline: as §1

KRAS G13D = KRAS G13D (Homo sapiens (Human), UniProt P01116+P62937, G13D); assay: Ras-Raf (BRAF RBD) disruption / FRET / MOA assay, KRAS G13D; type: biochemical; conditions: read-out: IC50* KRAS G13D FRET data
Outline: as §1

NRAS G12C = NRAS G12C (Homo sapiens (Human), UniProt P01111+P62937, G12C); assay: Ras-Raf (BRAF RBD) disruption / FRET / MOA assay, NRAS G12C; type: biochemical; conditions: read-out: IC50* NRAS G12C FRET data
Outline: as §1

K-Ras G13C, sequence (P01116-2 other isoform, or with tags, fused parts or gaps G13C): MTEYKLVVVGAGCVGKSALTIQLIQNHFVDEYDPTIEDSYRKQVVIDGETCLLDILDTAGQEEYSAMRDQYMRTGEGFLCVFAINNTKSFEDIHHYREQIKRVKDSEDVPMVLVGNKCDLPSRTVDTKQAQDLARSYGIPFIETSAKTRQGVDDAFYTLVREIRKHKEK
K-Ras G13C, sequence (P62937 whole entry): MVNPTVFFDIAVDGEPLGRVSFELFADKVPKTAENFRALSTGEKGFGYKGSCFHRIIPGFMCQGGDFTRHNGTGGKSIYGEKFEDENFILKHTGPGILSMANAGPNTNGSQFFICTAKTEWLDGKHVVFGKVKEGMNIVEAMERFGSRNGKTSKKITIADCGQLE
KRAS G12S, sequence (P01116-2 other isoform, or with tags, fused parts or gaps G12S): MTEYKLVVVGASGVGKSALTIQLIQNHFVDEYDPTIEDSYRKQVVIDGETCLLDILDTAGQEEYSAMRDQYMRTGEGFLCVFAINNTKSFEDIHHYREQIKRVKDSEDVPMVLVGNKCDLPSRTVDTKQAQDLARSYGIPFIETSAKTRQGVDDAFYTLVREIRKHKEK
KRAS G12S, sequence (P62937 whole entry): as the sequence (P62937 whole entry) above
KRAS WT, sequence (P01116-2 other isoform, or with tags, fused parts or gaps): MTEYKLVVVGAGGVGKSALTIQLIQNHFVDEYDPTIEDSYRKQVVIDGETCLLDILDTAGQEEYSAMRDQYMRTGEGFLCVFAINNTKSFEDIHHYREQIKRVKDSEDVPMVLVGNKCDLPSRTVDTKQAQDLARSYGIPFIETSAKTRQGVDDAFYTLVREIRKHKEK
KRAS WT, sequence (P62937 whole entry): as the sequence (P62937 whole entry) above
KRAS G12D, sequence (P01116-2 other isoform, or with tags, fused parts or gaps G12D): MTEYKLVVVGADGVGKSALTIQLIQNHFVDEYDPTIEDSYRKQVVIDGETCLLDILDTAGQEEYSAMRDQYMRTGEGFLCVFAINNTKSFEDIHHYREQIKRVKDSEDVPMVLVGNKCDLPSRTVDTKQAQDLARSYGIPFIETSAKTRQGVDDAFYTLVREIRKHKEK
KRAS G12D, sequence (P62937 whole entry): as the sequence (P62937 whole entry) above
K-Ras G12C, sequence (P01116-2 other isoform, or with tags, fused parts or gaps G12C): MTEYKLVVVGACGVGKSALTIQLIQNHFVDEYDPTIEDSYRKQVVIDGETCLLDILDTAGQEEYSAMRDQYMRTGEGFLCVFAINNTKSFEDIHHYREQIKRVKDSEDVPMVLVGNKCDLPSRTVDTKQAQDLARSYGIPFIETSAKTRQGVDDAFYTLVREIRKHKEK
K-Ras G12C, sequence (P62937 whole entry): as the sequence (P62937 whole entry) above
KRAS G12V, sequence (P01116-2 other isoform, or with tags, fused parts or gaps G12V): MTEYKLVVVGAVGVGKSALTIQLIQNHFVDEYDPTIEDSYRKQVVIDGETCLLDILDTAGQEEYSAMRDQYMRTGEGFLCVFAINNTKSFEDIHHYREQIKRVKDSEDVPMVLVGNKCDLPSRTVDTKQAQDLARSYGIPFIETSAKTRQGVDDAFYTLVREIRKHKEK
KRAS G12V, sequence (P62937 whole entry): as the sequence (P62937 whole entry) above
NRAS G12C, sequence (P01111 whole entry G12C): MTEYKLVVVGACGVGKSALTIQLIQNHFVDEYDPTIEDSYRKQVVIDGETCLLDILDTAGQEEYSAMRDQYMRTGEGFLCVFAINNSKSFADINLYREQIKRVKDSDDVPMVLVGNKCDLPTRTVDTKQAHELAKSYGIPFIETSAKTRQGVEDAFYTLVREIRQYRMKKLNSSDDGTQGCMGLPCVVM
NRAS G12C, sequence (P62937 whole entry): as the sequence (P62937 whole entry) above
KRAS G13D, sequence (P01116-2 other isoform, or with tags, fused parts or gaps G13D): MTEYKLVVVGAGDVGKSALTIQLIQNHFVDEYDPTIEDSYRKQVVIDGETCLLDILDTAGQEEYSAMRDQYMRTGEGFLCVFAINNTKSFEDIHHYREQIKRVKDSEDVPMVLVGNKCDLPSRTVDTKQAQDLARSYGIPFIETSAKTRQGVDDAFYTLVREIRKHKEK
KRAS G13D, sequence (P62937 whole entry): as the sequence (P62937 whole entry) above

SMILES	EC50 [1] [nM]	IC50 (NCI-H358 (K-Ras G12C)) [nM]	IC50 (K-Ras G12C)	IC50 (K-Ras G13C)	IC50 (KRAS G12S)	IC50 (KRAS G12D) [nM]	IC50 (KRAS G12V)	IC50 (KRAS WT)	IC50 (KRAS G13D) [nM]	IC50 (NRAS G12C)
C=CC(=O)N1CC[C@H](C(=O)N(C)[C@H](C(=O)N[C@H]2Cc3cc(O)cc(c3)-c3ccc4c(c3)c(c(-c3ccc(COC)cc3CN(C)C)n4CC)CC(C)(C)COC(=O)[C@@H]3CCCN(N3)C2=O)C(C)C)C1 [Example A127]	< 5000	100 to 1000	10 to 100 nM	100 to 1000 nM	100 to 1000 nM	1000 to 10000	100 to 1000 nM	1000 to 10000 nM	1000 to 10000	10 to 100 nM
C=CC(=O)N1CC[C@H](C(=O)N(C)[C@H](C(=O)N[C@H]2Cc3cc(O)cc(c3)-c3ccc4c(c3)c(c(-c3ccncc3CN(C)C)n4CC)CC(C)(C)COC(=O)[C@@H]3CCCN(N3)C2=O)C(C)C)C1 [Example A128]	< 5000	< 10	10 to 100 nM	100 to 1000 nM	100 to 1000 nM	1000 to 10000	100 to 1000 nM	100 to 1000 nM	100 to 1000	10 to 100 nM
CCn1c(-c2cccnc2COC)c2c3cc(ccc31)-c1cc(O)cc(c1)C[C@H](NC(=O)[C@H](C(C)C)N(C)C(=O)[C@H]1CCN(C(=O)C#CCCN3CCOCC3)C1)C(=O)N1CCC[C@H](N1)C(=O)OCC(C)(C)C2 [Example A129]	< 5000	10 to 100	< 10 nM	100 to 1000 nM	100 to 1000 nM	1000 to 10000	100 to 1000 nM	1000 to 10000 nM	1000 to 10000	< 10 nM
CCn1c(-c2cnccc2[C@H](C)OC)c2c3cc(ccc31)-c1cccc(c1)C[C@H](NC(=O)[C@H](C1CCCC1)N(C)C(=O)[C@H]1CCN(C(=O)C#CCN(C)C)C1)C(=O)N1CCC[C@H](N1)C(=O)OCC(C)(C)C2 [Example A133]	< 5000	10 to 100	10 nM to 100 nM and < 10 nM (2×)	10 nM to 100 nM (2×) and 1 µM to 10 µM	1 µM to 10 µM (2×) and > 10 µM	1000 to 10000	1 µM to 10 µM (2×) and > 10 µM	1 µM to 10 µM (2×) and > 10 µM	1000 to 10000	10 nM to 100 nM and < 10 nM (2×)
CCn1c(-c2cccnc2COC)c2c3cc(ccc31)-c1cc(O)cc(c1)C[C@H](NC(=O)[C@H](C(C)C)N(C)C(=O)[C@H]1CCN(C(=O)/C=C/CN3CCOCC3)C1)C(=O)N1CCC[C@H](N1)C(=O)OCC(C)(C)C2 [Example A134]	< 5000	100 to 1000	10 to 100 nM	1000 to 10000 nM	1000 to 10000 nM	1000 to 10000	1000 to 10000 nM	1000 to 10000 nM	1000 to 10000	10 to 100 nM
CCn1c(-c2cnccc2COC)c2c3cc(ccc31)-c1cncc(c1)C[C@H](NC(=O)[C@H](C(C)C)N(C)C(=O)[C@H]1CCN(C(=O)C#CCN(C)C)C1)C(=O)N1CCC[C@H](N1)C(=O)OCC(C)(C)C2 [Example A139]	< 5000	100 to 1000	10 to 100 nM	1000 to 10000 nM	> 10000 nM	1000 to 10000	> 10000 nM	> 10000 nM	> 10000	100 to 1000 nM
CCn1c(-c2cnccc2[C@H](C)OC)c2c3cc(ccc31)-c1cccc(c1)C[C@H](NC(=O)[C@H](C(C)C)N(C)C(=O)[C@H]1CCN(C(=O)C#CCN(C)C)C1)C(=O)N1CCC[C@H](N1)C(=O)OCC(C)(C)C2 [Example A140]	< 5000	< 10	< 10 nM	10 to 100 nM	1000 to 10000 nM	1000 to 10000	1000 to 10000 nM	1000 to 10000 nM	1000 to 10000	< 10 nM
CCn1c(-c2cnccc2C(C)C)c2c3cc(ccc31)-c1cc(O)cc(c1)C[C@H](NC(=O)[C@H](C(C)C)N(C)C(=O)[C@H]1CCN(C(=O)C#CCN(C)C)C1)C(=O)N1CCC[C@H](N1)C(=O)OCC(C)(C)C2 [Example A141]	< 5000	< 10	< 10 nM	10 to 100 nM	100 to 1000 nM	1000 to 10000	100 to 1000 nM	100 to 1000 nM	100 to 1000	< 10 nM
